Results reported in PubChem BioAssay (NCI).
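Values below derive from 48-hour exposures of cells grown in 96-well plates, with endpoints linearly interpolated between the two concentrations bracketing the appropriate inhibition level. TGI is the concentration that stops growth completely.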

Key:
Test in all cases: growth of human tumour cells (NCI), 48 h
[1] = tested on: RXF 393 renal
[2] = tested on: U251 CNS
[3] = tested on: A498 renal
[4] = tested on: 786-0 renal
[5] = tested on: MDA-MB-231 breast
[6] = tested on: ACHN renal
[7] = tested on: SNB-75 CNS
[8] = tested on: NCI-H23 lung
[9] = tested on: LOX IMVI melanoma
[10] = tested on: HOP-92 NSCLC
[11] = tested on: UACC-257 melanoma
[12] = tested on: DU-145 prostate
[13] = tested on: TK-10 renal
[14] = tested on: HL-60(TB) leukemia
[15] = tested on: T-47D breast
[16] = tested on: MALME-3M melanoma
[17] = tested on: NCI/ADR-RES ovarian
[18] = tested on: IGROV1 ovarian
[19] = tested on: MDA-N
[20] = tested on: SR leukemia

| Structure (SMILES) | TGI [1] | TGI [2] | TGI [3] | TGI [4] | TGI [5] | TGI [6] | TGI [7] | TGI [8] | TGI [9] | TGI [10] | TGI [11] | TGI [12] | TGI [13] | TGI [14] | TGI [15] | TGI [16] | TGI [17] | TGI [18] | TGI [19] | TGI [20] |
| --- | --- | --- | --- | --- | --- | --- | --- | --- | --- | --- | --- | --- | --- | --- | --- | --- | --- | --- | --- | --- |
| c1ccc2c3nnc(c2c1)SCCSCCCSCCS3 | 95.7 µM | > 100 µM | 92.6 µM | > 100 µM | 86.1 µM | > 100 µM | 18.5 µM | > 100 µM | > 100 µM | 87.7 µM | > 100 µM | > 100 µM | > 100 µM | > 100 µM | > 100 µM | 77.3 µM | > 100 µM | > 100 µM | > 100 µM |  |
| COc1ccc2c(c1)CC[C@@H]1[C@@H]2CC[C@]2(C)[C@@H](O)/C(=C/c3ccncc3)C[C@@H]12 | 17.9 µM | 25.1 µM | 38.3 µM | 31.7 µM | 32.6 µM | 67.2 µM | 39.8 µM | 31.7 µM |  | 28 µM | 35.6 µM | 41 µM | 34 µM | 39.2 µM | 28.9 µM | 29.9 µM | 37.2 µM | 30 µM | 33.2 µM |  |
| Cc1cc(=O)oc2c(CNC(C(=O)O)C(C)O)c(O)ccc12 (stereo not given) | > 100 µM | > 100 µM |  | > 100 µM | > 100 µM | > 100 µM | > 100 µM | > 100 µM | > 100 µM | > 100 µM | > 100 µM | > 100 µM | > 100 µM | > 100 µM | > 100 µM | > 100 µM | > 100 µM | > 100 µM | > 100 µM | > 100 µM |
| CCOC(=O)CCC(NC(=O)c1ccc(Oc2nc3ccccc3nc2C(=O)OCC)cc1)C(=O)OCC (stereo not given) |  | > 100 µM |  | > 100 µM | 95.9 µM | > 100 µM | 98.1 µM | > 100 µM | > 100 µM | > 100 µM | > 100 µM | > 100 µM | > 100 µM | > 100 µM | > 100 µM |  | > 100 µM | > 100 µM | > 100 µM | > 100 µM |
| CN(NC(=O)c1cccs1)C1=NCCN1 | > 100 µM | > 100 µM | > 100 µM | > 100 µM | > 100 µM | > 100 µM | > 100 µM | > 100 µM | > 100 µM | > 100 µM | > 100 µM |  | > 100 µM | > 100 µM | > 100 µM | > 100 µM | > 100 µM | > 100 µM | > 100 µM | > 100 µM |
| COc1ccc2[nH]c3c(C)c4cnccc4c(C)c3c2c1 | 6.02 µM | 3.24 µM |  | 1.64 µM | 6.77 µM | > 10 µM | > 10 µM | > 10 µM |  | > 10 µM | > 10 µM | 9.93 µM | > 10 µM | 4.64 µM | > 10 µM | 2.82 µM | 6.94 µM | > 10 µM | 3.43 µM | > 10 µM |
